From PMC10444810, “Induction of open-form bile canaliculus formation by hepatocytes for evaluation of biliary drug excretion” (Communications Biology, 2023)
Structures can show the parent of a compound that is named as a salt. Where two headings read alike, the source gives them in different places.

Key:
[1] = biological target: T1, MRP2 (Homo sapiens, UniProt Q92887); conditions: not told
[2] = biological target: T2, OATP1B1 (Homo sapiens, UniProt Q9Y6L6)
T2 sequence (Q9Y6L6 1-691): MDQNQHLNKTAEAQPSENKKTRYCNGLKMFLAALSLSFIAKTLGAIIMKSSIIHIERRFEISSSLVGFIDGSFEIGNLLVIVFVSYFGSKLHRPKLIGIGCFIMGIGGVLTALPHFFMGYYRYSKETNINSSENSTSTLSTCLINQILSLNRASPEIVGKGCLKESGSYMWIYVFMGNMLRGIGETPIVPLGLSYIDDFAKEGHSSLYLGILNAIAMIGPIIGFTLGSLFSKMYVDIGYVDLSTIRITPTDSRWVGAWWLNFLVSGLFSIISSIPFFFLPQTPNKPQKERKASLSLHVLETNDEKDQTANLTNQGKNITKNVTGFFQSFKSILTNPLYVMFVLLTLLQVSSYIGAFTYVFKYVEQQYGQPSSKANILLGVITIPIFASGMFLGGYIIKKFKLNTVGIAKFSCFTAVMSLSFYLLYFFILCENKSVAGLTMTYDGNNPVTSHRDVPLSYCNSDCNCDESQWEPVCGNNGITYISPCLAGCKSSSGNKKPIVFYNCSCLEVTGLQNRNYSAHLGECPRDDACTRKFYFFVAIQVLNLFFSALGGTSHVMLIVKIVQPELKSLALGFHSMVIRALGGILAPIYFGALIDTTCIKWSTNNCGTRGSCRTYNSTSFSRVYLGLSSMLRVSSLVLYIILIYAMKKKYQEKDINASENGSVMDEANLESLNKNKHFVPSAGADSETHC

[3] = biological target: CYP1A2 (Homo sapiens, UniProt P05177)
[4] = system: BSEP; conditions: cited from earlier work
[5] = system: icHep; conditions: for intracellular amount on DFP treatment: not told
[6] = system: BSEP
[7] = system: BSEP; design: method as in PMID 23877105; conditions: SCHs; cited from earlier work
[8] = icHep permeation assay (sinusoidal to bile side) to estimate drug biliary excretion clearance; conditions: human
[9] = system: sandwich-cultured PXB-cells; conditions: human, 1 μM
[10] = cited from earlier work
[11] = cited from earlier work; for Observed in vivo CLbile: human
[12] = Reported human in vivo biliary excretion clearance and intrinsic clearance estimated from it (Eq. 4)
[13] = cited from earlier work; for Rb: blood/plasma concentration ratio
[14] = biological target: T1, MRP2; test: MRP2-mediated biliary transport of CDF (CDFDA permeation assay); conditions: benzbromarone 100 μM, icHep
[15] = biological target: P-gp (Homo sapiens, UniProt P08183); conditions: two donors (HUM181001B), 1 μCi/ml, 120 min
Description: The cells were incubated in a 37°C water bath, and 200 μl of TB was collected from the lower chamber (bile side) at 30, 60, 90, and 120 min. An equal amount of TB was immediately added after every sampling point. […] The apparent permeability coefficient Papp (cm/s) was estimated using Eq. (2). Here, Q, A, and C0 indicate the recovered amount of the compound on the bile side, the surface area of the insert membrane (0.3 cm^2), and the initial concentration of the substrate, respectively.2 Papp=dQ/dt/(A×C0)

[16] = in vitro; conditions: human, Biliary excretion clearance, observed, CLbile, int
[17] = Biliary excretion clearance, in vitro, observed, CLbile, int, icHep (HUM181001B), CLbile,app of icHep minus control cells
[18] = unbound fraction of the plasma protein
[19] = unbound fraction, reported value
[20] = reported in vivo biliary excretion clearance
[21] = estimated from observed CLbile with fp, Rb, Qh 1400 ml/min
[22] = estimated from observed in vivo CLbile with fp, Rb and Qh 1400 ml/min

T1 sequence (Q92887 whole entry): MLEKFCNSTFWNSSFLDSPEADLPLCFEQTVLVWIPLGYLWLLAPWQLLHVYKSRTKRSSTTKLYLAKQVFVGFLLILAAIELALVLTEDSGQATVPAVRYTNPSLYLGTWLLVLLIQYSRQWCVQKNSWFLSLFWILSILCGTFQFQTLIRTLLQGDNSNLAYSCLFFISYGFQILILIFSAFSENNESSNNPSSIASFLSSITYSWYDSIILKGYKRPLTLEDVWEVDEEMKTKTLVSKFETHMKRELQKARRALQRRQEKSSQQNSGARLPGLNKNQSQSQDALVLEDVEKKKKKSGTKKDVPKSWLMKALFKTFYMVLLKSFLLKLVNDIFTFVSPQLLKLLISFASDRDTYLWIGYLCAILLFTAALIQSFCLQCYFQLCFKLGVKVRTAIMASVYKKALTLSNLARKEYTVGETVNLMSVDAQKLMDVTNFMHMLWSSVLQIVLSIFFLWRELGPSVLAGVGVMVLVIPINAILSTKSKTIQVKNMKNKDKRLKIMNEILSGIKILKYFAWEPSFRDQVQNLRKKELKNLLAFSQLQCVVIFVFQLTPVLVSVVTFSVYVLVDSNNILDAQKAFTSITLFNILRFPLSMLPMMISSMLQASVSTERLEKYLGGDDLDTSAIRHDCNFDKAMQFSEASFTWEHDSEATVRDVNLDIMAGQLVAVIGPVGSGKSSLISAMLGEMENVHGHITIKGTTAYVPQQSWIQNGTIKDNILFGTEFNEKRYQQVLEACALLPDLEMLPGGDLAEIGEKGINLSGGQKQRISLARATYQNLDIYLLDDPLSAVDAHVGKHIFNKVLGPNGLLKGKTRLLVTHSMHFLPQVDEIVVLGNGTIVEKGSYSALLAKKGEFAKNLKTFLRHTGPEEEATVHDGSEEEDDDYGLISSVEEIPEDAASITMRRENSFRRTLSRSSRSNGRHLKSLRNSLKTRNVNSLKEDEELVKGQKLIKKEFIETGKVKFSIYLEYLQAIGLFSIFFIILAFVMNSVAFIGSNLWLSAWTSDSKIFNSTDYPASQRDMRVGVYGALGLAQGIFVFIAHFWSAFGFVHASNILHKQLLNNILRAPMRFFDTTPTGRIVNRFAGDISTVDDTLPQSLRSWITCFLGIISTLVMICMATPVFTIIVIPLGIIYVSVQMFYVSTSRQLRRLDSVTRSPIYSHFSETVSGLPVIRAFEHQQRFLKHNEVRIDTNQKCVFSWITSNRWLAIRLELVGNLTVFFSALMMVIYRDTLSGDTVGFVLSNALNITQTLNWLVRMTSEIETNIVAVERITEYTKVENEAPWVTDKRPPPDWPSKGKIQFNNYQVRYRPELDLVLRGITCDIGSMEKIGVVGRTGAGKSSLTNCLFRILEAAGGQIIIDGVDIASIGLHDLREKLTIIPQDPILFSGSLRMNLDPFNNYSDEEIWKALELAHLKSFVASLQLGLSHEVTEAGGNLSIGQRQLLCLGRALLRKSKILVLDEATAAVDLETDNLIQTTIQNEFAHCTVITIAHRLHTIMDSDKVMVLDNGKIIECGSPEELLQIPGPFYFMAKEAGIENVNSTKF
Chain of P-gp (P08183 whole entry): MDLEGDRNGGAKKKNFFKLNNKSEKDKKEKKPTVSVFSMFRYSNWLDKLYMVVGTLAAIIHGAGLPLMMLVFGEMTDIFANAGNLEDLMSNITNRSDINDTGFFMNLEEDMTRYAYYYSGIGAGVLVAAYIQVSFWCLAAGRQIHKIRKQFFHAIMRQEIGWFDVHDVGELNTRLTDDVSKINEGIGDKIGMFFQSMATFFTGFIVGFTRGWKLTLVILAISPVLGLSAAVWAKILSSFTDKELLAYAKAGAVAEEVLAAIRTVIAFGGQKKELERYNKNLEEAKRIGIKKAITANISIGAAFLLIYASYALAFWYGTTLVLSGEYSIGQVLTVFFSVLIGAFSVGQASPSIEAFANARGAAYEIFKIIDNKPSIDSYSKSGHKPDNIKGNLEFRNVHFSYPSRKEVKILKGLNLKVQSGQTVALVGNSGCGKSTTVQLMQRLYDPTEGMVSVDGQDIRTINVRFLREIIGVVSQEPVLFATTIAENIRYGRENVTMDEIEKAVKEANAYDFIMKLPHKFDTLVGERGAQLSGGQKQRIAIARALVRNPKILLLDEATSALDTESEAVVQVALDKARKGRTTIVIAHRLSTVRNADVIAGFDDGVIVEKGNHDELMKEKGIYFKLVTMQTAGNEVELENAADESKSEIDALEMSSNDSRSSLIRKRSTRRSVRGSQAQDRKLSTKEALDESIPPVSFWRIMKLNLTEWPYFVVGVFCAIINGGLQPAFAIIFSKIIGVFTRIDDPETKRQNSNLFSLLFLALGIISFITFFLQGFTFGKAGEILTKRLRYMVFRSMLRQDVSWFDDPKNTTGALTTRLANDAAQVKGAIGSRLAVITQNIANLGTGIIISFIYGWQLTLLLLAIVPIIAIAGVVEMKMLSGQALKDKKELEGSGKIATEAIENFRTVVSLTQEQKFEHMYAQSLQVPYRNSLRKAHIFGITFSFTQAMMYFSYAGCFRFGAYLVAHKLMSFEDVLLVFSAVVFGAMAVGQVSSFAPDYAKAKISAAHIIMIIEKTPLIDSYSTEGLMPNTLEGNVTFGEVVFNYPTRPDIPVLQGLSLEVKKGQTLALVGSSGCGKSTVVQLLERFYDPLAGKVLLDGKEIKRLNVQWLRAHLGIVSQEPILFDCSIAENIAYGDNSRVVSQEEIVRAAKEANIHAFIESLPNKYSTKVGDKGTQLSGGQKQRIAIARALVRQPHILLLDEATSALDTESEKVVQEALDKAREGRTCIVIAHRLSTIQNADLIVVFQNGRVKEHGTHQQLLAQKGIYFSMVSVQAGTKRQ
Chain of CYP1A2 (P05177 whole entry): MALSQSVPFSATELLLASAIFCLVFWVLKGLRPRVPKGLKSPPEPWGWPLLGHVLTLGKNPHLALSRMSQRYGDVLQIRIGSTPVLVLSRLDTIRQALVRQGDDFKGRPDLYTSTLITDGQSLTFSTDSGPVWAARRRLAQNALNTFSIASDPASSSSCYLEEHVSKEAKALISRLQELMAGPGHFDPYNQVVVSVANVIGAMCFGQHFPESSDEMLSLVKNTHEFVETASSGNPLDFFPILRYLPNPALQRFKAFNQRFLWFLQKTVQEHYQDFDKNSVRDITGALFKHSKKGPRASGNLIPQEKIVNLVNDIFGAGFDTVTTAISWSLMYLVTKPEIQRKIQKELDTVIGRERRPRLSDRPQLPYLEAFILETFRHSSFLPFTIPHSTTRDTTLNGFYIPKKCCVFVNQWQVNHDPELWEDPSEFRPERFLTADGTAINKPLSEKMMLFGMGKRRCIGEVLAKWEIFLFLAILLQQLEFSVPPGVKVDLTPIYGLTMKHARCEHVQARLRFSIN

Structure (SMILES): C[C@]12CC[C@@H]3c4ccc(O)cc4CC[C@H]3[C@@H]1CC[C@@H]2O[C@@H]1O[C@H](C(=O)O)[C@@H](O)[C@H](O)[C@H]1O [E217βG]
- permeability to the bile side in icHep compared to the control [1]: significantly increased
- difference in OATP1B1 substrate uptake clearance between two donors [2]: 2.85 fold

Structure (SMILES): CC(=O)Nc1ccc(O)cc1 [Acetaminophen]
- Enzyme activity, Mean [3]: 0.950 pmol/min/106 cells

Structure (SMILES): Cc1c(C)c2c(c(C)c1O)CCC(C)(COc1ccc(CC3SC(=O)NC3=O)cc1)O2 (stereo not shown) [troglitazone]
- IC50 [4]: 2.3 µM

Structure (SMILES): Cc1c(C)c2c(c(C)c1OS(=O)(=O)O)CCC(C)(COc1ccc(CC3SC(=O)NC3=O)cc1)O2 (stereo not shown) [troglitazone sulfate]
- IC50 [4]: 4.2 µM

Structure (SMILES): CCOc1nc2cccc(C(=O)OC(C)OC(=O)OC3CCCCC3)c2n1Cc1ccc(-c2ccccc2-c2nnn[nH]2)cc1 (stereo not shown) [CIL, candesartan cilexetil]
- effect on intracellular accumulation of taurocholate [5]: increased
- intracellular amount on DFP treatment [5]: increased
- effect on biliary excretion clearance of taurocholate [6]: decreased
- effect on biliary excretion clearance of BSEP substrate taurocholate ([6]; CIL (10 μM) alone, taurocholate 1 μM, 120 min): did not affect
- BSEP inhibition [7]: inhibited

Structure (SMILES): CCOc1nc2cccc(C(=O)O)c2n1Cc1ccc(-c2ccccc2-c2nnn[nH]2)cc1 [CAN, candesartan]
- intracellular amount on DFP treatment [5]: decreased
- BSEP inhibition [7]: not

Structure (SMILES): CC[C@H]1OC(=O)[C@H](C)[C@@H](O[C@H]2C[C@@](C)(OC)[C@@H](O)[C@H](C)O2)[C@H](C)[C@@H](O[C@@H]2O[C@H](C)C[C@H](N(C)C)[C@H]2O)[C@](C)(O)C[C@@H](C)C(=O)[C@H](C)[C@@H](O)[C@]1(C)O [Erythromycin, erythromycin]
- hepatocyte CLint at 1 μM [8]: 0.732 ± 0.0721 µL/min/1e6 cells
- hepatocyte CLint at 1 μM [8, 17]: 0.793 ± 0.0723 µL/min/1e6 cells
- BEI (%) Mean ([9]; 2 min): 46.3%
- Predicted in vivo CLbile, int, Mean ([9]; 2 min): 2262 mL/min
- BEI (%) Mean ([9]; 5 min): 22.5%
- Predicted in vivo CLbile, int, Mean ([9]; 5 min): 289 mL/min
- BEI (%) Mean ([9]; 10 min): 30.0%
- Predicted in vivo CLbile, int, Mean ([9]; 10 min): 238 mL/min
- BEI (%) Mean ([9]; 20 min): 54.8%
- Predicted in vivo CLbile, int, Mean ([9]; 20 min): 310 mL/min
- fp, unbound fraction of the plasma protein ([10]; plasma): 0.305[37]
- fp [10, 18]: 0.305
- fp [10, 19]: 0.305
- Observed in vivo CLbile [11, 20]: 80.3 mL/min
- Observed in vivo CLbile ([11]; reported value): 80.3 mL/min
- Biliary excretion clearance, in vivo, observed, CLbile ([11]; in vivo): 80.3[36] ml/min
- Observed in vivo CLbile, int [12, 21]: 285 mL/min
- Observed in vivo CLbile, int [12, 22]: 285 mL/min
- Rb ([13]; reported value): 0.75
- Rb [13]: 0.75

Structure (SMILES): CCc1oc2ccccc2c1C(=O)c1cc(Br)c(O)c(Br)c1 [benzbromarone]
- effect of MRP2 inhibitor on the increased appearance of CDF on the bile side [14]: reduced this increase to the same level as the control group

Structure (SMILES): C[C@H]1O[C@@H](O[C@H]2[C@@H](O)C[C@H](O[C@H]3[C@@H](O)C[C@H](O[C@H]4CC[C@@]5(C)[C@H](CC[C@@H]6[C@@H]5C[C@@H](O)[C@]5(C)[C@@H](C7=CC(=O)OC7)CC[C@]65O)C4)O[C@@H]3C)O[C@@H]2C)C[C@H](O)[C@@H]1O [Digoxin, digoxin]
- BEI (%) Mean ([9]; 2 min): 21.9%
- Predicted in vivo CLbile, int, Mean ([9]; 2 min): 703 mL/min
- BEI (%) Mean ([9]; 5 min): 28.3%
- Predicted in vivo CLbile, int, Mean ([9]; 5 min): 410 mL/min
- BEI (%) Mean ([9]; 10 min): 44.9%
- Predicted in vivo CLbile, int, Mean ([9]; 10 min): 439 mL/min
- BEI (%) Mean ([9]; 20 min): 37.1%
- Predicted in vivo CLbile, int, Mean ([9]; 20 min): 152 mL/min
- permeability to the bile side in icHep compared to the control [15]: significantly increased
- Observed in vivo CLbile, int [12, 21]: 154 mL/min
- Observed in vivo CLbile, int [12, 22]: 154 mL/min

Structure (SMILES): CCOc1ccc2ccccc2c1C(=O)N[C@@H]1C(=O)N2[C@@H]1SC(C)(C)[C@@H]2C(=O)O [Nafcillin, nafcillin]
- hepatocyte CLint at 1 μM [8, 17]: 1.07 ± 0.14 µL/min/1e6 cells
- BEI (%) Mean ([9]; 2 min): 57.4%
- Predicted in vivo CLbile, int, Mean ([9]; 2 min): 3401 mL/min
- BEI (%) Mean ([9]; 5 min): 42.7%
- Predicted in vivo CLbile, int, Mean ([9]; 5 min): 1026 mL/min
- BEI (%) Mean ([9]; 10 min): 40.6%
- Predicted in vivo CLbile, int, Mean ([9]; 10 min): 340 mL/min
- BEI (%) Mean ([9]; 20 min): 70.9%
- Predicted in vivo CLbile, int, Mean ([9]; 20 min): 608 mL/min
- hepatocyte CLint at 1 μM [16]: 2.22 ± 1.01 µL/min/1e6 cells
- fp, unbound fraction of the plasma protein ([10]; reported value): 0.123[43]
- fp [10, 18]: 0.123
- fp [10, 19]: 0.123
- Observed in vivo CLbile [11, 20]: 125 mL/min
- Observed in vivo CLbile ([11]; reported value): 125 mL/min
- Observed in vivo CLbile, int [12, 21]: 1213 mL/min
- Observed in vivo CLbile, int [12, 22]: 1213 mL/min
- Rb ([13]; reported value): 0.55
- Rb [13]: 0.55
- Rb, blood/plasma concentration ratio ([13]; reported value): 0.55[43]
